What was measured:
[1] = test system: stress ulcer; experiment: Stress ulcer test (immobilized rats, ulcer index); assay type: in vivo, female wistar rats; conditions: for U.I. (delta %): control = 100
Description: For the following tests 200-250 g female wistar rats were fasted for 24 hours before the experiment. Water was given ad libium. A. STRESS ULCER TEST The rats were immobilized on their backs for 24 hours. After immobilization the animals were killed, and their stomachs were prepared for ulcer analysis. The gastric cytoprotective effect of PCCD was tested by administering it in the following way: Case A: At 0, 6th, 12th and 18th hour after the immobilization. Administrations were carried out both ip and per os. In both cases the animals were killed and their stomachs prepared for ulcer analysis. In each experiment the ulcer index was calculated. In the calculation of the U.I., each mm^2 of ulcer or erosion is 1 point. Bleeding results in an additional 5 points. Perforation means an additional 10 points. The number of animals is (n=20) in each group. Mean (%)±S.E.M. is calculated. Statistical analysis is done according to the Student's T-Test. Significance level, p is less than 0.05.

[2] = in vivo; cited from earlier work
[3] = test system: gastric lesions on the corpus mucosa; experiment: Gastric cytoprotective test (ethanol-induced gastric lesions, A. Robert); assay type: in vivo, rats; conditions: for ED50: Rattus norvegicus, PCCD values relate to active ingredient
Description: For the following tests 200-250 g female wistar rats were fasted for 24 hours before the experiment. Water was given ad libium.
C. GASTRIC CYTOPROTECTIVE TEST
The following method according to the abovementioned reference was employed:
The cytoprotective substances were applied before giving ethanol p.o. or subcutaneously. As controls, prostacylin (PGI2) and PGE2 were used.
Evaluation was carried out by killing the animals and then removing their stomachs. The number of gastric lesions was determined in each case. The dose of the cytoprotective compounds giving a 50% inhibiting effect was determined. The number of gastric erosions in the stomachs of animals not treated with a cytoprotective agent was designated 100%.

[4] = test system: gastric mucosa; conditions: in vivo; cited from earlier work
[5] = Stability on oral application (acidic pH of the stomach); assay type: physicochemical; conditions: oral administration
[6] = 100 micrograms/kg i.p., PCCD data calculated for active ingredient

Question: Which “U.I. ± S.E.M.” value ([1]; 10 mg/kg i.p.) does the source give for CN/C(=N/CCSCc1nc[nH]c1C)NC#N [Cimetidine] here?
Answer: Its value is 3.0 ± 1.08.

Question: And the “U.I. (delta %)” value ([1]; 10 mg/kg i.p.)?
Answer: Its value is 38.9%.

Question: What about the “U.I. ± S.E.M.” value ([1]; 10 mg/kg p.o.) of the same molecule?
Answer: The value was 2.82 ± 1.36.

Question: What about the “U.I. (delta %)” value ([1]; 10 mg/kg p.o.) of the same molecule?
Answer: Its value is 36.7%.

Question: What does the source list for OC[C@H]1O[C@@H]2O[C@H]3[C@H](O)[C@@H](O)[C@@H](O[C@H]4[C@H](O)[C@@H](O)[C@@H](O[C@H]5[C@H](O)[C@@H](O)[C@@H](O[C@H]6[C@H](O)[C@@H](O)[C@@H](O[C@H]7[C@H](O)[C@@H](O)[C@@H](O[C@H]8[C@H](O)[C@@H](O)[C@@H](O[C@H]1[C@H](O)[C@H]2O)O[C@@H]8CO)O[C@@H]7CO)O[C@@H]6CO)O[C@@H]5CO)O[C@@H]4CO)O[C@@H]3CO [Beta-cyclodextrin]?
Answer: U.I. ± S.E.M. ([1]; 5 mg/kg i.p.): 6.8 ± 2.15; U.I. (delta %) ([1]; 5 mg/kg i.p.): 77.9%

Question: With COc1ccc2c(c1)c(CC(=O)O)c(C)n2C(=O)c1ccc(Cl)cc1 [indomethacin] as the molecule, how does the side effects [2] read?
Answer: Its side effects is “ulcerogenic side effects”.

Question: What does the source list for CCCCC[C@H](O)/C=C/[C@H]1[C@H](O)CC(=O)[C@@H]1C/C=C\CCCC(=O)O [PGE2]?
Answer: ED50 ([3]; po, orally): 0.03 mg/kg; ED50 ([3]; sc, subcutaneously): 0.1 mg/kg; cytoprotective effect compared with PGI2 ([3]; oral application): more effective; side effects [2]: diarrhogen side effects; decreasing the blood loss of the gastric mucosa induced by non-steroidal antiphlogistics [4]: significantly effective; therapy of peptic ulcers [4]: significantly effective

Question: What does the source list for CCCCC[C@H](O)/C=C/[C@@H]1[C@H]2C/C(=C/CCCC(=O)O)O[C@H]2C[C@H]1O [PGI2, prostacyclin]?
Answer: ED50 ([3]; po, orally): 1.8 mg/kg; ED50 ([3]; sc, subcutaneously): 0.04 mg/kg; cytoprotective effect compared with PGE2 ([3]; administered subcutaneously): stronger cytoprotective effect than PGE2; stability compared with PGE2 [5]: more unstable than is PGE2; U.I. ± S.E.M. [1, 6]: 5.4 ± 1.54; U.I. (delta %) [1, 6]: 70.0%
